# Measured values reported in patent publication US7541353B2, “Compounds for the treatment of hepatitis C” (Bristol-Myers Squibb Company, priority 2007, dated 2009).
# Columns and labels:
# HCV NS5B = target: T1, HCV NS5B (Hepatitis C virus genotype 1b, UniProt Q9WMX2); experiment: Modified HCV NS5B RdRp enzyme assay (preincubation protocol); format: biochemical
# T1 construct: The cDNA encoding the NS5B protein of HCV, genotype 1b; made in house; host or cells: E. coli BL21(DE3)
# Protocol: HCV NS5B RdRp cloning, expression, and purification. The cDNA encoding the NS5B protein of HCV, genotype 1b, was cloned into the pET21a expression vector. The protein was expressed with an 18 amino acid C-terminal truncation to enhance the solubility. The E. coli competent cell line BL21(DE3) was used for expression of the protein. Cultures were grown at 37° C. for ˜4 hours until the cultures reached an optical density of 2.0 at 600 nm. The cultures were cooled to 20° C. and induced with 1 mM IPTG. Fresh ampicillin was added to a final concentration of 50 μg/ml and the cells were grown overnight at 20° C.
# Cell pellets (3L) were lysed for purification to yield 15-24 mgs of purified NS5B. The lysis buffer consisted of 20 mM Tris-HCl, pH 7.4, 500 mM NaCl, 0.5% triton X-100, 1 mM DTT, 1 mM EDTA, 20% glycerol, 0.5 mg/ml lysozyme, 10 mM MgCl2, 15 ug/ml deoxyribonuclease I, and Complete™ protease inhibitor tablets (Roche). After addition of the lysis buffer, frozen cell pellets were resuspended using a tissue homogenizer. To reduce the viscosity of the sample, aliquots of the lysate were sonicated on ice using a microtip attached to a Branson sonicator. The sonicated lysate was centrifuged at 100,000×g for 1 hr at 4° C. and filtered through a 0.2 μm filter unit (Corning).
# The protein was purified using two sequential chromatography steps: Heparin sepharose CL-6B and polyU sepharose 4B (Pharmacia). The chromatography buffers were identical to the lysis buffer but contained no lysozyme, deoxyribonuclease I, MgCl2 or protease inhibitor and the NaCl concentration of the buffer was adjusted according to the requirements for charging the protein onto the column. Each column was eluted with a NaCl gradient which varied in length from 5-50 column volumes depending on the column type. After the final chromatography step, the resulting purity of the enzyme is >90% based on SDS-PAGE analysis. The enzyme was aliquoted and stored at −80° C.
# Standard HCV NS5B RdRp enzyme assay. HCV RdRp genotype 1b assays were run in a final volume of 60 μl in 96 well plates (Corning 3600). The assay buffer is composed of 20 mM Hepes, pH 7.5, 2.5 mM KCl, 2.5 mM MgCl2, 1 mM DTT, 1.6 U RNAse inhibitor (Promega N2515), 0.01 mg/ml BSA (Sigma B6917), and 2% glycerol. All compounds were serially diluted (3-fold) in DMSO and diluted further in water such that the final concentration of DMSO in the assay was 2%. HCV RdRp genotype 1b enzyme was used at a final concentration of 28 nM. A polyA template was used at 6 nM, and a biotinylated oligo-dT12 primer was used at 180 nM final concentration. Template was obtained commercially (Amersham 27-4110). Biotinylated primer was prepared by Sigma Genosys. 3H-UTP was used at 0.6 μCi (0.29 μM total UTP). Reactions were initiated by the addition of enzyme, incubated at 30° C. for 60 min, and stopped by adding 25 μl of 50 mM EDTA containing SPA beads (4 μg/μl, Amersham RPNQ 0007). Plates were read on a Packard Top Count NXT after >1 hr incubation at room temperature.
# Modified HCV NS5B RdRp enzyme assay. A modified enzyme assay was performed essentially as described for the standard enzyme assay except for the following: The biotinylated oligo dT12 primer was precaptured on streptavidin-coated SPA beads by mixing primer and beads in assay buffer and incubating at room temperature for one hour. Unbound primer was removed after centrifugation. The primer-bound beads were resuspended in 20 mM Hepes buffer, pH 7.5 and used in the assay at final concentrations of 20 nM primer and 0.67 μg/μl beads. Order of addition in the assay: enzyme (1.75 nM) was added to diluted compound followed by the addition of a mixture of template (0.36 nM), 3H-UTP (0.6 μCi, 0.29 μM), and primer-bound beads, to initiate the reaction; concentrations given are final. Reactions were allowed to proceed for 4 hours at 30° C.
# IC50 values for compounds were determined using seven different [I]. […]
# HCV replicon cells = experiment: HCV replicon FRET assay; format: cell-based; details: Hepatitis C virus
# Protocol: FRET Assay Preparation. The HCV FRET screening assay was performed in 96-well cell culture plates. The FRET peptide (Anaspec, Inc.) (Taliani et al., Anal. Biochem. 1996, 240, 60-67) contains a fluorescence donor, EDANS, near one end of the peptide and an acceptor, DABCYL, near the other end. The fluorescence of the peptide is quenched by […] resonance energy transfer (RET) between the donor and the acceptor, but as the NS3 protease cleaves the peptide the products are released from RET quenching and the fluorescence of the donor becomes apparent. The assay reagent was made as follows: 5× cell Luciferase cell culture lysis reagent from Promega (#E153A) diluted to 1× with dH2O, NaCl added to 150 mM final, the FRET peptide diluted to 20 μM final from a 2 mM stock.
# To prepare plates, HCV replicon cells, with or without a Renilla luciferase reporter gene, were trypsinized and plated in a 96-well plate with titrated test compounds added in columns 3 through 12; columns 1 and 2 contained a control compound (HCV control inhibitor), and the bottom row contained cells with DMSO only. The plates were then placed in a CO2 incubator at 37° C.
# Assays. Subsequent to addition of the test compounds described above (FRET Assay Preparation), at various times the plate was removed and Alamar blue solution (Trek Diagnostics, #00-100) was added to measure cellular toxicity. After reading in a Cytoflour 4000 instrument (PE Biosystems), plates were rinsed with PBS and then used for FRET assay by the addition of 30 ul of the FRET peptide assay reagent described above (FRET Assay Preparation) per well. The plate was then placed into the Cytoflour 4000 instrument which had been set to 340 excite/490 emission, automatic mode for up to 20 cycles and the plate read in a kinetic mode. Typically, the signal to noise using an endpoint analysis after the reads was at least three-fold. Alternatively, after Alamar blue reading, plates were rinsed with PBS, then used for luciferase assay using the Promega Dual-Glo Luciferase Assay System or the Promega EnduRen Live Cell Substrate assay.
# Compound analysis was performed by quantification of the relative HCV replicon inhibition and the relative cytotoxicity values. To calculate cytoxicity values, the average Alamar Blue fluorescence signals from the control wells were set as 100% non-toxic. The individual signals in each of the compound test wells were then divided by the average control signal and multiplied by 100% to determine […]. To calculate the HCV replicon inhibition values, an average background value was obtained from the two wells containing the highest amount of HCV control inhibitor at the end of the assay period. These numbers were similar to those obtained from naïve Huh-7 cells. The background numbers were then subtracted from the average signal obtained from the control wells and this number was used as 100% activity. The individual signals in each of the compound test wells were then divided by the averaged control values after background subtraction and multiplied by 100% to determine percent activity. EC50 values were calculated as the concentration which caused a 50% reduction in FRET or luciferase activity. The two numbers generated for the compound plate, percent cytoxicity and percent activity, were used to determine compounds of interest for further analysis.
# T1 sequence (Q9WMX2 2420-2992): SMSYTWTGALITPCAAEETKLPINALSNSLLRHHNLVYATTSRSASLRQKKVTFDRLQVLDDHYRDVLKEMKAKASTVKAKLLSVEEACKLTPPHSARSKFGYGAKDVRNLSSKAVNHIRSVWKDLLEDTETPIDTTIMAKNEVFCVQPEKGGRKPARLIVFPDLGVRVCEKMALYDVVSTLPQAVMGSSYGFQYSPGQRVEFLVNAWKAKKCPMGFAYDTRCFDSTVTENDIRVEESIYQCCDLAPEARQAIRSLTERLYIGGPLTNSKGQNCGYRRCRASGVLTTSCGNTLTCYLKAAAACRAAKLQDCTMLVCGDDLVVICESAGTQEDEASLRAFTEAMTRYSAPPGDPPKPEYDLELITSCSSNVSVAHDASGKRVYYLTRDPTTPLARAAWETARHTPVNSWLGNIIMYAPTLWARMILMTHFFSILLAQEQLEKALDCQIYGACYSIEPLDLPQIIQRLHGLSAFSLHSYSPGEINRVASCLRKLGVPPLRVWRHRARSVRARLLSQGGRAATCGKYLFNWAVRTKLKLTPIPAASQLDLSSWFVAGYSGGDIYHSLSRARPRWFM
Structure (SMILES),IC50 (HCV NS5B) [nM],EC50 (HCV replicon cells) [nM]
COc1ccc2c(c1)C1CC1(C(=O)N1C3CCC1COC3)Cn1c-2c(C2CCCCC2)c2ccc(C(=O)NS(=O)(=O)N(C)C)cc21 (stereo not shown),4.58 to 500,4.58 to 500
COc1ccc2c(c1)C1CC1(C(=O)N1C3CCC1CC(O)C3)Cn1c-2c(C2CCCCC2)c2ccc(C(=O)NS(=O)(=O)N(C)C)cc21 (stereo not shown),4.58 to 500,4.58 to 500
COc1ccc2c(c1)C1CC1(C(=O)N1C3CCC1CC(N1CCCCC1)C3)Cn1c-2c(C2CCCCC2)c2ccc(C(=O)NS(=O)(=O)N(C)C)cc21 (stereo not shown),4.58 to 500,4.58 to 500
COc1ccc2c(c1)C1CC1(C(=O)N1C3CCC1CC(C)(O)C3)Cn1c-2c(C2CCCCC2)c2ccc(C(=O)NS(=O)(=O)N(C)C)cc21 (stereo not shown),4.58 to 500,4.58 to 500
COc1ccc2c(c1)C1CC1(C(=O)N1C3CCC1CC(N(C)C)C3)Cn1c-2c(C2CCCCC2)c2ccc(C(=O)NS(=O)(=O)N(C)C)cc21 (stereo not shown),4.58 to 500,4.58 to 500
COc1ccc2c(c1)C1CC1(C(=O)N1C3CCC1CC(N(C)Cc1ccccc1)C3)Cn1c-2c(C2CCCCC2)c2ccc(C(=O)NS(=O)(=O)N(C)C)cc21 (stereo not shown),4.58 to 500,4.58 to 500
COc1ccc2c(c1)C1CC1(C(=O)N1C3CCC1CC(N(CCN(C)C)Cc1ccccc1)C3)Cn1c-2c(C2CCCCC2)c2ccc(C(=O)NS(=O)(=O)N(C)C)cc21 (stereo not shown),4.58 to 500,4.58 to 500
COc1ccc2c(c1)C1CC1(C(=O)N1C3CCC1CC(NCc1ccccc1)C3)Cn1c-2c(C2CCCCC2)c2ccc(C(=O)NS(=O)(=O)N(C)C)cc21 (stereo not shown),4.58 to 500,4.58 to 500
CCNC1CC2CCC(C1)N2C(=O)C12CC1c1cc(OC)ccc1-c1c(C3CCCCC3)c3ccc(C(=O)NS(=O)(=O)N(C)C)cc3n1C2 (stereo not shown),4.58 to 500,4.58 to 500
COc1ccc2c(c1)C1CC1(C(=O)N1C3CCC1CC(NCCN(C)C)C3)Cn1c-2c(C2CCCCC2)c2ccc(C(=O)NS(=O)(=O)N(C)C)cc21 (stereo not shown),4.58 to 500,4.58 to 500
COc1ccc2c(c1)C1CC1(C(=O)N1C3CCC1CC3)Cn1c-2c(C2CCCCC2)c2ccc(C(=O)NS(=O)(=O)N3CCN(C)CC3)cc21 (stereo not shown),4.58 to 500,4.58 to 500
COc1ccc2c(c1)C1CC1(C(=O)N1C3CCC1CC(O)(C(C)(C)C)C3)Cn1c-2c(C2CCCCC2)c2ccc(C(=O)NS(=O)(=O)N(C)C)cc21 (stereo not shown),4.58 to 500,4.58 to 500
COc1ccc2c(c1)C1CC1(C(=O)N1C3CCC1CC(N(CCN(C)C)Cc1ccccc1)C3)Cn1c-2c(C2CCCCC2)c2ccc(C(=O)NS(C)(=O)=O)cc21 (stereo not shown),4.58 to 500,4.58 to 500
COc1ccc2c(c1)C1CC1(C(=O)N1C3CCC1CC(C)(O)C3)Cn1c-2c(C2CCCCC2)c2ccc(C(=O)NS(=O)(=O)C(C)C)cc21 (stereo not shown),4.58 to 500,4.58 to 500
